Calls of active or inactive are those of the source.
How the values were obtained:
[1] = biological target: T1, Small ubiquitin-related modifier 1 (Homo sapiens, UniProt P63165); assay: inhibitors of SUMO1 peptide binding, dose response, biochemical, fluorescence polarization, uHTS hits (AID 624382); format: functional; details: read-out: IC50_Mean
[2] = biological target: T2, Small ubiquitin-related modifier 2 (Homo sapiens, UniProt P61956); assay: inhibitors of SUMO2 protein-protein interaction, dose response, selectivity assay for SUMO1 interaction inhibitor project, biochemical, FRET, human SUMO2, uHTS hits (AID 624384); format: functional; details: read-out: IC50_Mean
[3] = biological target: T3, Beta-galactosidase (Escherichia coli, UniProt Q8VNN2); assay: beta-galactosidase enzyme inhibitors and activators, dose response, artefact control for CCR6 antagonist project, biochemical, E. coli enzyme, set 3 (AID 504712); format: functional
[4] = biological target: DNA (cytosine-5)-methyltransferase 1 (Homo sapiens, UniProt P26358); assay: DNMT1 methyltransferase inhibitors, confirmation, biochemical, fluorescent molecular beacon (AID 602386); format: functional
[5] = biological target: T2, Small ubiquitin-related modifier 2; assay: SUMO2–SIM peptide binding inhibitors, dose response, selectivity assay for SUMO1 interaction inhibitor project, biochemical, fluorescence polarization, uHTS hits (AID 624385); format: functional; details: read-out: IC50_Mean
[6] = biological target: T4, Probable nicotinate-nucleotide adenylyltransferase (Staphylococcus aureus (strain N315), UniProt P65502); format: functional, Staphylococcus aureus subsp. aureus N315;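 on IC50 Mean: confirmatory dose-response retesting of NadD inhibitor hits first found in an ultra-high-throughput screen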
[7] = biological target: T1, Small ubiquitin-related modifier 1; assay: inhibitors of SUMO1 partner interactions, dose response, biochemical, FRET (AID 624383); format: functional; details: read-out: IC50_Mean
[8] = biological target: T4, Probable nicotinate-nucleotide adenylyltransferase; format: functional, Staphylococcus aureus subsp. aureus N315; details: read-out: IC50_Mean
[9] = biological target: Scavenger receptor class B member 1 (Mus musculus, UniProt Q61009); assay: inhibitors of SR-BI mediated HDL lipid uptake, dose response, ldlA[mSR-BI] cells, fluorescence, cherry pick (AID 493194); format: functional, cell-based;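 further: cellular uptake of fluorescent DiI-labeled HDL measured as cell fluorescence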
[10] = biological target: Glyceraldehyde-3-phosphate dehydrogenase (Homo sapiens, UniProt P04406)
[11] = cells; format: functional
[12] = cytotoxicity toward NIH3T3 fibroblasts, dose response, counter-screen, cell-based, ATP luminescence, mouse fibroblasts (AID 2010); format: functional;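 further: cells exposed to compound for about 90 hours before reading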
[13] = THP-1 cell cytotoxicity, dose response, cytotoxicity control for non-replicating M. tuberculosis project (AID 489025); format: functional
[14] = inhibitors of intracellular T. cruzi replication, confirmation, NIH3T3 host cells, beta-gal luminescence (AID 2044); format: functional, cell-based;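 further: intracellular parasites grown in NIH/3T3 mouse fibroblasts as host cells; luminescent beta-galactosidase reporter signal from transgenic T. cruzi replicating inside host cells; inhibitors lower the luminescence signal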
[15] = biological target: Serine/threonine-protein phosphatase PP1-alpha catalytic subunit (Homo sapiens, UniProt P62136); assay: PP1 phosphatase inhibitors, dose response, biochemical, fluorescence (AID 2403);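 further: phosphatase turnover of OMFP into fluorescent 3-O-methylfluorescein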
[16] = biological target: Voltage-dependent T-type calcium channel subunit alpha-1H (Homo sapiens, UniProt O95180); format: functional;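 further: channel activity triggered by adding a high calcium stimulation buffer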
[17] = biological target: Nonstructural protein 1 (Influenza A virus, UniProt Q194T2); format: functional, Influenza A virus (A/California/07/2009(H1N1))
[18] = biological target: Serine/threonine-protein phosphatase (Homo sapiens, UniProt Q9BPW0); assay: Counterscreen for inhibitors of PP1: fluorescence-based biochemical high throughput dose response assay to identify inhibitors of Protein Phosphatase 5 (PP5). [Related pubchem assays: 2034 (Summary (PP5 inhibitors)), 1987 (PP5 inhibitors in singlate), 2235 (PP1 inhibitors in singlate)]
[19] = Vero E6 cell cytotoxicity, dose response, cytotoxicity control for non-replicating M. tuberculosis project, secondary assay (AID 492998); format: functional, VeroE6; details: Vero C1008
[20] = biological target: T5, Kappa-type opioid receptor (Homo sapiens, UniProt P41145); format: functional
[21] = biological target: T5, Kappa-type opioid receptor; format: functional; remark: listed apart in the source
[22] = biological target: T3, Beta-galactosidase; format: functional
[23] = growth suppression of beta-catenin-knockout colon cells, dose response, cell-based, HCT116, human colon tumor (AID 1045); format: functional;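 further: HCT116 colon tumor cells with beta catenin knocked out; cells exposed to compound for 60 hours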
[24] = growth suppression of PTEN-null colon cells, dose response, cell-based, HCT116 PTEN knockout (AID 1047); format: functional;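 further: HCT116 colon tumor cells with PTEN knocked out; cells exposed to compound for 60 hours before readout; potency for loss of cell viability measured by luminescence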
[25] = Fluorescence-based cell-based high throughput dose response assay for inhibitors of the interaction of nucleotide-binding oligomerization domain containing 2 (NOD2) and the receptor-interacting serine-threonine kinase 2 (RIPK2).; format: functional; details: Homo sapiens
[26] = biological target: T6, Fatty acid synthase (Homo sapiens, UniProt P49327); assay: FAS thioesterase domain inhibitors, dose response, biochemical, kinetic fluorescence intensity (AID 624326); format: functional;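 further: rate of fluorescence rise from hydrolysis of a fluorogenic O-methyl fluorescein ester substrate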
[27] = biological target: Neurotensin receptor type 1 (Homo sapiens, UniProt P30989); format: functional;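 further: Image-based confirmatory dose-response assay measuring agonist activity at NTR1; NTR1-expressing U2OS osteosarcoma cells imaged for beta-arrestin GFP spot formation; agonist potency where compounds increase beta-arrestin recruitment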
[28] = biological target: T6, Fatty acid synthase; assay: FAS thioesterase domain inhibitors, dose response, biochemical, endpoint fluorescence intensity, uHTS hits (AID 624327); format: functional;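 further: fluorescence from hydrolysis of an O-methyl fluorescein acyl ester substrate by the enzyme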
[29] = biological target: ORF 73 (Human herpesvirus 8, UniProt O40947); assay: inhibitors of C-LANA binding to LBS DNA, dose response, biochemical, fluorescence polarization, cherry-picked samples (AID 504725); design: species or system Human gammaherpesvirus 8;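 further: fluorescence polarization of a labeled DNA duplex reporting LANA DNA binding; potency is for inhibitors that block LANA binding to the DNA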

T4 sequence (P65502 whole entry): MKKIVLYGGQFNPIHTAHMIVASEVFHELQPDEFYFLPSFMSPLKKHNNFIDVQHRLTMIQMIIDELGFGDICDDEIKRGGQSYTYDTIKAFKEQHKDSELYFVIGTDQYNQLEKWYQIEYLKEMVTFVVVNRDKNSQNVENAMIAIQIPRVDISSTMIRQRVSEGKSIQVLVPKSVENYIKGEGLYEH
T5 sequence (P41145 whole entry): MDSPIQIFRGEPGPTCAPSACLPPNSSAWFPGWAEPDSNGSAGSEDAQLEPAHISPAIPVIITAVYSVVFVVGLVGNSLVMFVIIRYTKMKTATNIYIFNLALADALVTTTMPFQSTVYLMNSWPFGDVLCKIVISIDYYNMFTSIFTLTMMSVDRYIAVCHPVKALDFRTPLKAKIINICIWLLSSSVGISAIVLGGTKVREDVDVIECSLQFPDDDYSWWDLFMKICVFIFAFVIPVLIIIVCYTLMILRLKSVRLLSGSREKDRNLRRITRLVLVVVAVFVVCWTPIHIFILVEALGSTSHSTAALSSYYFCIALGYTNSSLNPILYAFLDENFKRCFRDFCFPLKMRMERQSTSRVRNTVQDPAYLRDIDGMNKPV
T1 sequence (P63165 whole entry): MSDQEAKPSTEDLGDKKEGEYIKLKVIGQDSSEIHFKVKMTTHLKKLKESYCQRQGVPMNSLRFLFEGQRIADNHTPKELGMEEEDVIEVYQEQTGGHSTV
T6 sequence (P49327 whole entry, the tested form may be a part): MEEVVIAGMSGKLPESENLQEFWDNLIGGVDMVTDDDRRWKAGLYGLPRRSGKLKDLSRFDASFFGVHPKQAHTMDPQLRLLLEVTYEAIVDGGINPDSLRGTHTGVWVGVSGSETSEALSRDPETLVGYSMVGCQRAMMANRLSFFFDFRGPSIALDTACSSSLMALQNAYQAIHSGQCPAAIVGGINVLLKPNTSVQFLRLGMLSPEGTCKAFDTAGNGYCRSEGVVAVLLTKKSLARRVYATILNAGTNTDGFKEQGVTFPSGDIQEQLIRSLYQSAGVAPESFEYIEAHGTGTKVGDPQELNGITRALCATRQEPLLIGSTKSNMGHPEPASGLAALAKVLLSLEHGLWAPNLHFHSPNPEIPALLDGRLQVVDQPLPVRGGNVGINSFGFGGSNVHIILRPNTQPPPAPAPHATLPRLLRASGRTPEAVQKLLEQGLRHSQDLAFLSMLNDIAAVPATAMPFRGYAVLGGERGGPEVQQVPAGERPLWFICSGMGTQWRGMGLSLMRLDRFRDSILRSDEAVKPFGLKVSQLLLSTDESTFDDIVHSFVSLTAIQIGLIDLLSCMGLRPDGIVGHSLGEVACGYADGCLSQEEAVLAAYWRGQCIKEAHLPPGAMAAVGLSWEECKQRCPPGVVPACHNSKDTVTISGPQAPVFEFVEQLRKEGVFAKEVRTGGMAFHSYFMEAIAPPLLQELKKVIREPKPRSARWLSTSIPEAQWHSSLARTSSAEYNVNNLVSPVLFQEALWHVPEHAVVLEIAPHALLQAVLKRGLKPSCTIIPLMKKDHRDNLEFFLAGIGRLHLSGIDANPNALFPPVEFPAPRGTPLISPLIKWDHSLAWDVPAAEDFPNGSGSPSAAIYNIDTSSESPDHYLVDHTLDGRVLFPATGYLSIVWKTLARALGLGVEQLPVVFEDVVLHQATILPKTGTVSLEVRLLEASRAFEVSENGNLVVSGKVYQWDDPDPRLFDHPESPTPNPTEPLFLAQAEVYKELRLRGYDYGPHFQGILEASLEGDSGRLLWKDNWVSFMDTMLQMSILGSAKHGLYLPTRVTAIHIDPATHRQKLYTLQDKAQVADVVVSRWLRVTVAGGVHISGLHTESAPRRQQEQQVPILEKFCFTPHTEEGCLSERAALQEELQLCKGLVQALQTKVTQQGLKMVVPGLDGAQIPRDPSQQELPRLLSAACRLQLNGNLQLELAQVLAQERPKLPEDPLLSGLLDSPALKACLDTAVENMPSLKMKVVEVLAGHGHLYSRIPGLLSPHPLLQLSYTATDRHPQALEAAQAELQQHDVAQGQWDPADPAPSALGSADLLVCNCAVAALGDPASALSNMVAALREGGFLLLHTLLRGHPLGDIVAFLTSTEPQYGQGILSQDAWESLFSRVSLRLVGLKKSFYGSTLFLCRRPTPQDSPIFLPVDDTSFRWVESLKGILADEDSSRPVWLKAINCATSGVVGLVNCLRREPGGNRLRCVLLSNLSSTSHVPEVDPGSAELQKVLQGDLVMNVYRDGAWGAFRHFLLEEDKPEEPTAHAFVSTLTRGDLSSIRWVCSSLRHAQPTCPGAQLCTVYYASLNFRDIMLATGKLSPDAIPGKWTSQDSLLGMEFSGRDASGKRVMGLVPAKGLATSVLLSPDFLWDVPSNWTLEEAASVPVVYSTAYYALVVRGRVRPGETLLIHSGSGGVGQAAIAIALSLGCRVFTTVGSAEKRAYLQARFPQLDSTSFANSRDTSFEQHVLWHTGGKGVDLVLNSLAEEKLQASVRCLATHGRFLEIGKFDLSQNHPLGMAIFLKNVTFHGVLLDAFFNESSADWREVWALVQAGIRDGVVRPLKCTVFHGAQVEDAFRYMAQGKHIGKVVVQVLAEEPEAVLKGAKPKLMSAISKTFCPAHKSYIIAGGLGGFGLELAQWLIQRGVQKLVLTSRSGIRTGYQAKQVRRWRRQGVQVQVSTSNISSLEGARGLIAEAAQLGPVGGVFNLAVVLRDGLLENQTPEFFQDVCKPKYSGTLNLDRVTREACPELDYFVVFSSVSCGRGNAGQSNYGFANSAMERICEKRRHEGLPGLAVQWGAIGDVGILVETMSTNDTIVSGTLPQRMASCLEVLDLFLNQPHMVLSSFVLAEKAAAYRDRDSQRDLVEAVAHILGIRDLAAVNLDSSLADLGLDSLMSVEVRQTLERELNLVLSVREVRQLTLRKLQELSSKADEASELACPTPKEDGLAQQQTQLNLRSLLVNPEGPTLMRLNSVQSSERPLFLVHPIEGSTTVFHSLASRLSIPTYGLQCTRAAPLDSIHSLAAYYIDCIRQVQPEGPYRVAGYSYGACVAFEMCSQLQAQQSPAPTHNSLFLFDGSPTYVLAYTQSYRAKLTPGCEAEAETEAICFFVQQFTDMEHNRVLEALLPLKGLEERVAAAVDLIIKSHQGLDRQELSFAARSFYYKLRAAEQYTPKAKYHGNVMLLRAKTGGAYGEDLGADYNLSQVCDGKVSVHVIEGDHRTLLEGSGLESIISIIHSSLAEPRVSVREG
T2 sequence (P61956 whole entry): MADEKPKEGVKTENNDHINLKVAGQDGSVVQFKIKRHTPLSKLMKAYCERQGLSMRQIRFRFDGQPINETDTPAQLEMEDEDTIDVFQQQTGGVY
T3 sequence (Q8VNN2 whole entry): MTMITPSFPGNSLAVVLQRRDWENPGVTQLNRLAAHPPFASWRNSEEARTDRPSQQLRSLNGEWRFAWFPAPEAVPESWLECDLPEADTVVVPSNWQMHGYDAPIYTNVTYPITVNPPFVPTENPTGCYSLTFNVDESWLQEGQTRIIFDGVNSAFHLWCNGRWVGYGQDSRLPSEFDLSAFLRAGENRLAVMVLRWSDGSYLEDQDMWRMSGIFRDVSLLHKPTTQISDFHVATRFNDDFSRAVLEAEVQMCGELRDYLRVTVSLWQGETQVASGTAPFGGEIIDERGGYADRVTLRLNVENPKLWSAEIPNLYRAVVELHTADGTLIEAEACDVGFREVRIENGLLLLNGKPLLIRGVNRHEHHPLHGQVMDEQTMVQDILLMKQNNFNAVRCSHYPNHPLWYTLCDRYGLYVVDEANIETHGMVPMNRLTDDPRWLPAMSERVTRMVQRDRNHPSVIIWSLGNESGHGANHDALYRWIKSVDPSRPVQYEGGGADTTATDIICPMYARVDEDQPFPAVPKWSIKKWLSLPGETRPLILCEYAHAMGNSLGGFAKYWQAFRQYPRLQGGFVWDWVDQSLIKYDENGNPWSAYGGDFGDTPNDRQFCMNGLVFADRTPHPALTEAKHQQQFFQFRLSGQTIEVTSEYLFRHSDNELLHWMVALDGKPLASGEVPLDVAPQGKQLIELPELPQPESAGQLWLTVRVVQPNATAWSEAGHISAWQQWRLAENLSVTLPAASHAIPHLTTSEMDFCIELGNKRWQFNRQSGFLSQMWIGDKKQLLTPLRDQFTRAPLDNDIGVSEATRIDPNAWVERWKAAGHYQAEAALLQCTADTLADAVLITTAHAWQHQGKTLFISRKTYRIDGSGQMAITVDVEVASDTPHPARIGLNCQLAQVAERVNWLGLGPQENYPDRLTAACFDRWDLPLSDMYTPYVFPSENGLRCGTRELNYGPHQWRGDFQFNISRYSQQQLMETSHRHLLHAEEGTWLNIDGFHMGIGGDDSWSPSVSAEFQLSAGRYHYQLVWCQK
Chain of Serine/threonine-protein phosphatase (Q9BPW0 whole entry): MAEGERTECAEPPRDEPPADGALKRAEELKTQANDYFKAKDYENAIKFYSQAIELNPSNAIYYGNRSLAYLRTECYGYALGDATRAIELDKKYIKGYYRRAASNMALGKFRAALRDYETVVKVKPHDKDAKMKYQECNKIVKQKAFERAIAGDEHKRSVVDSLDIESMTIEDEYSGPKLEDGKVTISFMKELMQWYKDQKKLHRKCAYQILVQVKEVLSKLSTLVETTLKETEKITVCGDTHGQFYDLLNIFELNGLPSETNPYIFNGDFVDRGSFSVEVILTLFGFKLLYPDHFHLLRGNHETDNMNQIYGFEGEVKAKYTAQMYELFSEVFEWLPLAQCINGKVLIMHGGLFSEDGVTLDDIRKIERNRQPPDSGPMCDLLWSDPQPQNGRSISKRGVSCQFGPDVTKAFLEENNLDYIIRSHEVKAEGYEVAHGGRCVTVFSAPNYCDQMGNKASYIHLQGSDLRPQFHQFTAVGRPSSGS
Chain of Nonstructural protein 1 (Q194T2 whole entry): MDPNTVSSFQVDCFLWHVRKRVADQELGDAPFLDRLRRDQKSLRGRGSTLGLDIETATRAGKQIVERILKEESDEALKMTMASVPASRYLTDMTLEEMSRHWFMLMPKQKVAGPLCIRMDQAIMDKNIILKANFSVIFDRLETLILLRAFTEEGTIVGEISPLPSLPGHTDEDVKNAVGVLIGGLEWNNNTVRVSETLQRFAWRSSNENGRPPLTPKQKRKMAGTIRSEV

For `CCOc1ccc(C=NNc2ccc(S(=O)(=O)Nc3ccccc3C(=O)O)cc2[N+](=O)[O-])cc1`, which IC50 [1] is on record?
The IC50 was 4.41 µM (active).

And the IC50 [2]?
Its IC50 is > 66 µM (inactive).

What about the IC50 [3] of the same compound?
Its IC50 is > 66.6 µM (inactive).

What about the IC50 [4] of the same compound?
Its IC50 is 5.78 µM (active).

And the IC50 [5]?
Its IC50 is 3.67 µM (active).

What about the IC50 [6] of the same compound?
The IC50 was 7.56 µM (active).

What about the IC50 [7] of the same compound?
Its IC50 is 51.3 µM (inactive).

What about the IC50 [8] of the same compound?
The IC50 was 15.6 µM (active).

For `Cc1cc(C)n(CC(=O)NC2CCCc3c2cnn3-c2ccc(C)c(C)c2)n1` (centres undefined), which AC50 [9] is on record?
Its AC50 is 0.819 µM (active).

For `Cc1cccc(Nc2nc(-c3ccccn3)cs2)n1`, which IC50 [10] is on record?
The IC50 was > 10 µM (inconclusive).

What about the IC50 [11] of the same compound?
Its IC50 is 0.27 µM (active).

And the EC50 [12]?
Its EC50 is 8.56 µM (active).

And the CC50 [13]?
Its CC50 is 21.8 µM (active).

And the EC50 [14]?
The EC50 was 0.503 µM (active).

What about the IC50 [15] of the same compound?
The IC50 was 4.96 µM (active).

What about the EC50 [16] of the same compound?
Its EC50 is 7.24 µM (active).

And the IC50 [17]?
The IC50 was 29.6 µM (active).

What about the IC50 [18] of the same compound?
Its IC50 is > 22.3 µM (not active).

What about the CC50 [19] of the same compound?
The CC50 was 11.6 µM (active).

Which IC50 [20] does the source give for `N#CC(C#N)=C1C=CC=CN1/C(=C\c1ccco1)C(=O)c1ccc(-c2ccccc2)cc1` here?
Its IC50 is 16.1 µM (active).

And the IC50 [21]?
The IC50 was over 32 µM.

And the EC50 [22]?
Its EC50 is > 31.5 µM (inactive).

What about the EC50 [23] of the same compound?
The EC50 was 4.81 µM (active).

What about the EC50 [24] of the same compound?
Its EC50 is 4.69 µM (active).

What about the IC50 [25] of the same compound?
The IC50 was 0.945 µM (active).

Which IC50 [26] does the source give for `C[C@@H](NC(=O)c1[nH]cnc1C(=O)Nc1ccc(Cl)cc1)c1ccccc1` here?
Its IC50 is 7.01 µM (active).

And the EC50 [27]?
The EC50 was 19.9 µM (active).

What about the IC50 [28] of the same compound?
Its IC50 is 8.13 µM (active).

Which AC50 [29] does the source give for `O=C(COc1ccccc1Cc1ccccc1)NCCCN1CCOCC1` here?
Its AC50 is 183 µM (active).

Reference: ChEMBL document CHEMBL1201862, “PubChem BioAssay data set” (2004)
